For 23 compounds, Activity results are on record in ChEMBL document CHEMBL1139817, “Synthesis and anti-inflammatory activity of 3-(4'-geranyloxy-3'-methoxyphenyl)-2-trans propenoic acid and its ester derivatives” (2007).

The subject of the test is Mus musculus. The experiment in a line: Antiinflammatory activity in CD1 mouse assessed as inhibition of croton oil-induced ear oedema at 0.3 umol/cm^2 after 6 hrs. More on the design: scale not given: the % may be the effect or the level left. It is filed as functional.

With `COc1cc(/C=C/C(=O)O)ccc1OC/C=C(\C)CCC=C(C)C`, the Activity was found to be 41%. Take `COC(=O)c1ccccc1OC(=O)/C=C/c1ccc(OC/C=C(\C)CCC=C(C)C)c(OC)c1`: the Activity turned out to be 42%. On to `COc1cc(/C=C/C(=O)Oc2ccc3ccc(=O)oc3c2)ccc1OC/C=C(\C)CCC=C(C)C`, for which the Activity stood at 38%.

As for `COC(=O)/C=C/c1ccc(OC(=O)/C=C/c2ccc(OC/C=C(\C)CCC=C(C)C)c(OC)c2)c(OC)c1`, the Activity amounted to 43%. To `COC(=O)c1ccc(OC(=O)/C=C/c2ccc(OC/C=C(\C)CCC=C(C)C)c(OC)c2)c(OC)c1` belongs 29%; to `COc1cc(/C=C/C(=O)Oc2ccccc2OC)ccc1OC/C=C(\C)CCC=C(C)C`, 49%; to `COc1cc(/C=C/C(=O)Oc2ccc3c(c2)C(=O)c2ccc(OC(=O)/C=C/c4ccc(OC/C=C(\C)CCC=C(C)C)c(OC)c4)cc2C3=O)ccc1OC/C=C(\C)CCC=C(C)C`, 43%. To `COc1cc(/C=C/C(=O)OC2=CC(=O)c3ccccc3C2=O)ccc1OC/C=C(\C)CCC=C(C)C` belongs 43%; to `COC(=O)/C=C/c1ccc(OC(=O)/C=C/c2ccc(OC/C=C(\C)CCC=C(C)C)c(OC)c2)c(OC(=O)/C=C/c2ccc(OC/C=C(\C)CCC=C(C)C)c(OC)c2)c1`, 38%; to `COc1cc(/C=C/C(=O)Oc2ccc(OC(=O)/C=C/c3ccc(OC/C=C(\C)CCC=C(C)C)c(OC)c3)cc2)ccc1OC/C=C(\C)CCC=C(C)C`, 57%.

For `COc1cc(/C=C/C(=O)Oc2ccc(NC(C)=O)cc2)ccc1OC/C=C(\C)CCC=C(C)C`, the Activity worked out at 51%.

Consider `CC(=O)Nc1ccc(O)cc1` [ACETAMINOPHEN], for which the Activity stood at 13%. In the case of `O=C1c2ccc(O)cc2C(=O)c2ccc(O)cc21` [ANTHRAFLAVICACID], the Activity amounted to 22%.

Regarding `O=C(O)/C=C/c1ccc(O)c(O)c1` [CAFFEIC ACID], the Activity is 6%. Regarding `COc1cc(/C=C/C(=O)O)ccc1O` [FERULATE], the Activity is 16%. `COc1ccccc1O` [GUAIACOL]: the Activity was determined as 10%. With `Oc1ccc(O)cc1` [HYDROQUINONE], the Activity was 4%. Under `COc1ccc2c(c1)c(CC(=O)O)c(C)n2C(=O)c1ccc(Cl)cc1` [INDOMETHACIN] stands 62%; under `O=C1C=C(O)C(=O)c2ccccc21` [LAWSONE], 23%. For the compound `O=C1C[C@@H](c2ccc(O)cc2)Oc2cc(O)cc(O)c21` [NARINGENIN], the Activity was found to be 43%. `O=C(O)c1ccccc1O` [SALICYLIC ACID]: the Activity stood at 13%. Take `O=c1ccc2ccc(O)cc2o1` [UMBELLIFERONE]: the Activity was 23%.

For the compound `COc1cc(C(=O)O)ccc1O` [VANILLIC ACID], the Activity was 20%.
